Assay in all cases: relative viability (nuclei count vs DMSO), 5 days (fraction); higher = more cells survive
Compound in test [1]: C[As](C)SC[C@H](NC(=O)CC[C@H](N)C(=O)O)C(=O)NCC(=O)O [Darinaparsin] + Nc1nc2[nH]cc(CCc3ccc(C(=O)N[C@@H](CCC(=O)O)C(=O)O)cc3)c2c(=O)[nH]1 [Pemetrexed] (partner 0.2 µM)
An outline of the steps:
(§1)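 Dosing by pin tool came one day after lung cancer cell lines were seeded in 1536-well plates, using either one drug or a fixed anchor-drug dose plus five library-drug doses (not always all listed) in √10 steps. After 5 days, nuclei were counted on 4× images. Relative viability is treated-well nuclei count divided by vehicle-well nuclei count, and values are medians of duplicate plates.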

Compound in the test “Darinaparsin + Foretinib”: C[As](C)SC[C@H](NC(=O)CC[C@H](N)C(=O)O)C(=O)NCC(=O)O [Darinaparsin] + COc1cc2c(Oc3ccc(NC(=O)C4(C(=O)Nc5ccc(F)cc5)CC4)cc3F)ccnc2cc1OCCCN1CCOCC1 [Foretinib] (partner 0.25 µM)
The procedure, abridged:
as §1

Compound in the test “Darinaparsin + Dasatinib”: C[As](C)SC[C@H](NC(=O)CC[C@H](N)C(=O)O)C(=O)NCC(=O)O [Darinaparsin] + Cc1nc(Nc2ncc(C(=O)Nc3c(C)cccc3Cl)s2)cc(N2CCN(CCO)CC2)n1 [Dasatinib] (partner 0.075 µM)
An outline of the steps: as §1

Compound in test [2]: C[As](C)SC[C@H](NC(=O)CC[C@H](N)C(=O)O)C(=O)NCC(=O)O [Darinaparsin] + CC1(C)CCC(c2ccc(Cl)cc2)=C(CN2CCN(c3ccc(C(=O)NS(=O)(=O)c4ccc(N[C@H](CCN5CCOCC5)CSc5ccccc5)c(S(=O)(=O)C(F)(F)F)c4)cc3)CC2)C1 [Navitoclax] (partner 0.5 µM)
The procedure, abridged:
as §1

As to H3255, the relative viability in test [1] (first compound 0.08 µM) came to 0.576; in test [1] (first compound 0.8 µM), 0.587; in test [1] (first compound 2.53 µM), 0.522; in test [1] (first compound 8 µM), 0.54; in the test with Darinaparsin + Foretinib (first compound 0.08 µM), 0.781; with Darinaparsin + Foretinib (first compound 0.8 µM) it was 0.863. Moreover, the relative viability worked out at 0.913 with Darinaparsin + Foretinib (first compound 2.53 µM); 0.854 in the test with Darinaparsin + Foretinib (first compound 8 µM); 0.355 with Darinaparsin + Dasatinib (first compound 0.08 µM); 0.346 in the test with Darinaparsin + Dasatinib (first compound 0.8 µM); 0.317 with Darinaparsin + Dasatinib (first compound 2.53 µM); 0.338 with Darinaparsin + Dasatinib (first compound 8 µM). Further, the relative viability in test [2] (first compound 0.08 µM) came out at 0.542; in test [2] (first compound 0.8 µM), 0.513; in test [2] (first compound 2.53 µM), 0.458; in test [2] (first compound 8 µM), 0.674.
Turning to LOU-NH91, the relative viability turned out to be 0.414 in test [1] (first compound 0.08 µM); 0.431 in test [1] (first compound 0.8 µM); 0.314 in test [1] (first compound 2.53 µM); 0.384 in test [1] (first compound 8 µM); 0.926 with Darinaparsin + Foretinib (first compound 0.08 µM); 0.92 with Darinaparsin + Foretinib (first compound 0.8 µM). Moreover, the relative viability in the test with Darinaparsin + Foretinib (first compound 2.53 µM) was 0.961; in the test with Darinaparsin + Foretinib (first compound 8 µM), 0.954; with Darinaparsin + Dasatinib (first compound 0.08 µM), 0.632; in the test with Darinaparsin + Dasatinib (first compound 0.8 µM), 0.512; in the test with Darinaparsin + Dasatinib (first compound 2.53 µM), 0.49; with Darinaparsin + Dasatinib (first compound 8 µM) it was 0.622. For the same cell line, the relative viability in test [2] (first compound 0.08 µM) amounted to 0.699; in test [2] (first compound 0.8 µM), 0.701; in test [2] (first compound 2.53 µM), 0.642; in test [2] (first compound 8 µM) it was 0.604.
Take NCI-H2126: the relative viability in test [1] (first compound 0.08 µM) came out at 0.74; in test [1] (first compound 0.8 µM), 0.594; in test [1] (first compound 2.53 µM), 0.666; in test [1] (first compound 8 µM) it was 0.805; with Darinaparsin + Foretinib (first compound 0.08 µM), 1.17; with Darinaparsin + Foretinib (first compound 0.8 µM) it was 1.1. The relative viability was determined as 1.05 with Darinaparsin + Foretinib (first compound 2.53 µM); 1.13 in the test with Darinaparsin + Foretinib (first compound 8 µM); 0.56 with Darinaparsin + Dasatinib (first compound 0.08 µM); 0.616 with Darinaparsin + Dasatinib (first compound 0.8 µM); 0.556 with Darinaparsin + Dasatinib (first compound 2.53 µM); 0.681 with Darinaparsin + Dasatinib (first compound 8 µM). For the same cell line, the relative viability in test [2] (first compound 0.08 µM) was 0.949; in test [2] (first compound 0.8 µM) it was 0.835; in test [2] (first compound 2.53 µM) it was 0.856; in test [2] (first compound 8 µM), 0.86.
For the cell line PC-14, the relative viability in test [1] (first compound 0.08 µM) turned out to be 0.134; in test [1] (first compound 0.8 µM), 0.131; in test [1] (first compound 2.53 µM), 0.128; in test [1] (first compound 8 µM), 0.143; with Darinaparsin + Foretinib (first compound 0.08 µM) it was 1.18; in the test with Darinaparsin + Foretinib (first compound 0.8 µM) it was 0.981. In addition, the relative viability in the test with Darinaparsin + Foretinib (first compound 2.53 µM) worked out at 0.927; with Darinaparsin + Foretinib (first compound 8 µM) it was 1.14; with Darinaparsin + Dasatinib (first compound 0.08 µM), 0.189; in the test with Darinaparsin + Dasatinib (first compound 0.8 µM), 0.24; with Darinaparsin + Dasatinib (first compound 2.53 µM), 0.245; with Darinaparsin + Dasatinib (first compound 8 µM) it was 0.211. The relative viability in test [2] (first compound 0.08 µM) is 1.19; in test [2] (first compound 0.8 µM), 0.981; in test [2] (first compound 2.53 µM), 1.04; in test [2] (first compound 8 µM) it was 1.17.
EMC-BAC-2: the relative viability in test [1] (first compound 0.08 µM) turned out to be 0.452; in test [1] (first compound 0.8 µM) it was 0.44; in test [1] (first compound 2.53 µM), 0.53; in test [1] (first compound 8 µM), 0.472; with Darinaparsin + Foretinib (first compound 0.08 µM), 1.08; with Darinaparsin + Foretinib (first compound 0.8 µM), 0.958. Besides, the relative viability was determined as 1.01 with Darinaparsin + Foretinib (first compound 2.53 µM); 1.16 with Darinaparsin + Foretinib (first compound 8 µM); 0.34 in the test with Darinaparsin + Dasatinib (first compound 0.08 µM); 0.368 in the test with Darinaparsin + Dasatinib (first compound 0.8 µM); 0.302 in the test with Darinaparsin + Dasatinib (first compound 2.53 µM); 0.35 in the test with Darinaparsin + Dasatinib (first compound 8 µM). Moreover, the relative viability in test [2] (first compound 0.08 µM) was 1.24; in test [2] (first compound 0.8 µM), 1.14; in test [2] (first compound 2.53 µM), 1; in test [2] (first compound 8 µM), 1.72.
Take HCC-78: the relative viability is 0.953 in test [1] (first compound 0.08 µM); 0.884 in test [1] (first compound 0.8 µM); 0.838 in test [1] (first compound 2.53 µM); 0.964 in test [1] (first compound 8 µM); 0.555 with Darinaparsin + Foretinib (first compound 0.08 µM); 0.492 with Darinaparsin + Foretinib (first compound 0.8 µM). The relative viability with Darinaparsin + Foretinib (first compound 2.53 µM) stood at 0.53; with Darinaparsin + Foretinib (first compound 8 µM), 0.483; with Darinaparsin + Dasatinib (first compound 0.08 µM) it was 0.382; in the test with Darinaparsin + Dasatinib (first compound 0.8 µM), 0.384; in the test with Darinaparsin + Dasatinib (first compound 2.53 µM), 0.375; with Darinaparsin + Dasatinib (first compound 8 µM), 0.386. The relative viability in test [2] (first compound 0.08 µM) turned out to be 0.841; in test [2] (first compound 0.8 µM) it was 0.729; in test [2] (first compound 2.53 µM), 0.842; in test [2] (first compound 8 µM), 0.84.
With SK-LU-1, the relative viability in test [1] (first compound 0.08 µM) stood at 1.21; in test [1] (first compound 0.8 µM), 0.942; in test [1] (first compound 2.53 µM), 0.787; in test [1] (first compound 8 µM), 1.18; with Darinaparsin + Foretinib (first compound 0.08 µM) it was 1.13; in the test with Darinaparsin + Foretinib (first compound 0.8 µM) it was 0.76. The relative viability is 0.65 with Darinaparsin + Foretinib (first compound 2.53 µM); 0.958 with Darinaparsin + Foretinib (first compound 8 µM); 0.173 with Darinaparsin + Dasatinib (first compound 0.08 µM); 0.107 in the test with Darinaparsin + Dasatinib (first compound 0.8 µM); 0.173 with Darinaparsin + Dasatinib (first compound 2.53 µM); 0.183 in the test with Darinaparsin + Dasatinib (first compound 8 µM). Further, the relative viability in test [2] (first compound 0.08 µM) was found to be 0.986; in test [2] (first compound 0.8 µM) it was 0.807; in test [2] (first compound 2.53 µM), 0.671; in test [2] (first compound 8 µM), 1.02.
Turning to ABC-1, the relative viability in the test with Darinaparsin + Foretinib (first compound 0.08 µM) came out at 1.36; with Darinaparsin + Foretinib (first compound 0.8 µM), 0.995; with Darinaparsin + Foretinib (first compound 2.53 µM), 1.18; in the test with Darinaparsin + Foretinib (first compound 8 µM), 1.08; with Darinaparsin + Dasatinib (first compound 0.08 µM), 0.56; with Darinaparsin + Dasatinib (first compound 0.8 µM), 0.451. Besides, the values for the relative viability with Darinaparsin + Dasatinib (first compound 2.53 µM) and with Darinaparsin + Dasatinib (first compound 8 µM) were 0.572 and 0.715, respectively.
Regarding LK-2, the relative viability was found to be 0.24 in test [1] (first compound 0.08 µM); 0.286 in test [1] (first compound 2.53 µM); 0.329 in test [1] (first compound 8 µM); 1.98 with Darinaparsin + Foretinib (first compound 0.08 µM); 0.769 with Darinaparsin + Foretinib (first compound 2.53 µM); 1.83 with Darinaparsin + Foretinib (first compound 8 µM). Besides, the relative viability in the test with Darinaparsin + Dasatinib (first compound 0.08 µM) was 0.201; with Darinaparsin + Dasatinib (first compound 2.53 µM), 0.301; with Darinaparsin + Dasatinib (first compound 8 µM), 0.274; in test [2] (first compound 0.08 µM) it was 0.968; in test [2] (first compound 0.8 µM) it was 0.709; in test [2] (first compound 2.53 µM) it was 0.746. In addition, the relative viability in test [2] (first compound 8 µM) stood at 1.07.
With NCI-H23, the relative viability came out at 0.933 in test [1] (first compound 0.08 µM); 0.616 in test [1] (first compound 0.8 µM); 0.643 in test [1] (first compound 2.53 µM); 0.74 in test [1] (first compound 8 µM); 0.986 with Darinaparsin + Foretinib (first compound 0.08 µM); 0.843 in the test with Darinaparsin + Foretinib (first compound 0.8 µM). Besides, the relative viability with Darinaparsin + Foretinib (first compound 2.53 µM) came to 0.891; in the test with Darinaparsin + Foretinib (first compound 8 µM), 1.06; with Darinaparsin + Dasatinib (first compound 0.08 µM) it was 0.909; in the test with Darinaparsin + Dasatinib (first compound 0.8 µM), 0.836; in the test with Darinaparsin + Dasatinib (first compound 2.53 µM), 0.714; with Darinaparsin + Dasatinib (first compound 8 µM), 0.843. For the same cell line, the relative viability stood at 1.09 in test [2] (first compound 0.08 µM), 0.917 in test [2] (first compound 0.8 µM), 0.963 in test [2] (first compound 2.53 µM) and 1.02 in test [2] (first compound 8 µM).

The values are drawn from the supplement of paper PMC10307832.
